Target: IDO (Homo sapiens, UniProt P14902)
Test: LLE_IDO_ABS_DR (IDO assay)

Sequence of IDO (P14902 whole entry): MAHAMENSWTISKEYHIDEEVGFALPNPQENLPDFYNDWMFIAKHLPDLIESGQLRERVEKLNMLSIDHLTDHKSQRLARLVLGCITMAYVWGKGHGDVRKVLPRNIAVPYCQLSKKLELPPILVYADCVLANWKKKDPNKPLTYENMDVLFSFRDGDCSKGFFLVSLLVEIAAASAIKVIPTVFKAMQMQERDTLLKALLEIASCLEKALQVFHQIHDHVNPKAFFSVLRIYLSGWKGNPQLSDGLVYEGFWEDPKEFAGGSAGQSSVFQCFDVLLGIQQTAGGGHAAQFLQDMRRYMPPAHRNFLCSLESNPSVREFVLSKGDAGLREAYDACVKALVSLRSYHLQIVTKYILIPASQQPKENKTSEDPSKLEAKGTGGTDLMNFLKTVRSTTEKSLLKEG

SMILES	IC50 [nM]
O=C(Nc1ccc(C2CC2)cc1)Nc1cc(-c2ccccc2-c2nnn[nH]2)ccc1N(CCC(F)(F)F)Cc1ccccn1 [Example 304, 1-(4-cyclopropylphenyl)-3-(4-((pyridin-2-ylmethyl)(3,3,3-trifluoropropyl)amino)-2′-(1H-tetrazol-5-yl)-[1,1′-biphenyl]-3-yl)urea]	70
O=C(Nc1ccccc1F)Nc1cc(-c2cc(F)ccc2C(=O)O)ccc1N(Cc1ccc(Cl)cc1)C1CCCCC1 [Example 470]	190
C=C(C)CN(CC(F)(F)F)c1ccc(-c2ccccc2C(=O)O)cc1NC(=O)Nc1ccc(C)cc1 [Example 471]	40
CN(c1ccc(-c2ccccc2C(=O)O)cc1NC(=O)Nc1ccccc1F)c1ccccc1C(C)(C)C [Example 480]	1840
Cc1ccc(NC(=O)Nc2cc(-c3ccccc3-c3nnn[nH]3)ccc2N(CC(C)C)CC2CC(F)(F)C2)cc1 [Example 381]	110
Cc1ccc(NC(=O)Nc2cc(-c3ccccc3-c3nnn[nH]3)ccc2N2CCC(c3nc(C)no3)C2)cc1 (stereo not shown) [Example 389]	620
COc1cc(NC(=O)Nc2cc(-c3ccccc3-c3nnn[nH]3)ccc2N(CC(C)C)CC(C)C)ccc1C#N [Example 261, 1-(4-cyano-3-methoxyphenyl)-3-(4-(diisobutylamino)-2′-(1H-tetrazol-5-yl)-[1,1′-biphenyl]-3-yl)urea]	4310
Cc1ccc(NC(=O)Nc2cc(-c3ccccc3C(=O)O)ccc2N(CC(C)C)CC(F)(F)F)cc1 [Example 474]	90
Cc1ccc(NC(=O)Nc2cc(-c3ccccc3C(=O)O)ccc2N(CCC(F)(F)F)Cc2ccccc2)cc1 [Example 8, 4′-(Benzyl(3,3,3-trifluoropropyl)amino)-3′-(3-(p-tolyl)ureido)-[1,1′-biphenyl]-2-carboxylic acid]	180
CCCN(Cc1ccccc1)c1ccc(-c2cc(F)ccc2C(=O)O)cc1NC(=O)Nc1ccc(C)cc1 [Example 186, 4′-(benzyl(propyl)amino)-5-fluoro-3′-(3-(p-tolyl)ureido)-[1,1′-biphenyl]-2-carboxylic acid]	30
CC(C)CN(CC(C)C)c1ccc(-c2ccccc2-c2nnn[nH]2)cc1NC(=O)Nc1ccc(F)c(C(F)(F)F)c1 [Example 271, 1-(4-(diisobutylamino)-2′-(1H-tetrazol-5-yl)-[1,1′-biphenyl]-3-yl)-3-(4-fluoro-3-(trifluoromethyl)phenyl) urea]	1010
Cc1ccc(NC(=O)Nc2cc(-c3cc(F)ccc3C(=O)O)ccc2N(CC(C)C)C(C)C)cc1 [Example 149, 5-fluoro-4′-(isobutyl(isopropyl)amino)-3′-(3-p-tolylureido)biphenyl-2-carboxylic acid]	60
CC(C)CN(CC(C)C)c1ccc(-c2ccccc2-c2nnn[nH]2)cc1NC(=O)Nc1ccc(S(C)(=O)=O)cc1F [Example 284, 1-(4-(diisobutylamino)-2′-(1H-tetrazol-5-yl)-[1,1′-biphenyl]-3-yl)-3-(2-fluoro-4-(methylsulfonyl)phenyl)urea]	2090
Cc1ccc(NC(=O)Nc2cc(-c3ccccc3C(=O)C(C#N)S(C)(=O)=O)ccc2N(CC(C)C)CC(C)C)cc1 (stereo not shown) [Example 96, 1-(2′-(2-cyano-2-(methylsulfonyl)acetyl)-4-(diisobutylamino)biphenyl-3-yl)-3-p-tolylurea]	1180
Cc1ccc(NC(=O)Nc2cc(-c3scnc3C(=O)O)ccc2N(CC(C)C)CC(C)C)cc1 [Example 103, 5-(4-(diisobutylamino)-3-(3-p-tolylureido)phenyl)thiazole-4-carboxylic acid]	1760
Cc1ccc(NC(=O)Nc2cc(-c3ccccc3C(=O)O)ccc2N(CCC(F)(F)F)CC2CC2)cc1 [Example 64, 4′-((cyclopropylmethyl) (3,3,3-trifluoropropyl)amino)-3′-(3-p-tolylureido)biphenyl-2-carboxylic acid]	290
O=C(Nc1ccc(OC(F)(F)F)cc1)Nc1cc(-c2ccccc2-c2nnn[nH]2)ccc1N(CCC(F)(F)F)Cc1ccc(F)cc1C(F)(F)F [Example 339, 1-(4-((4-fluoro-2-(trifluoromethyl)benzyl)(3,3,3-trifluoropropyl)amino)-2′-(1H-tetrazol-5-yl)-[1,1′-biphenyl]-3-yl)-3-(4-(trifluoromethoxy)phenyl)urea]	160
Cc1ccc(NC(=O)Nc2cc(-c3ccccc3-c3nnn[nH]3)ccc2N(Cc2ccccc2)CC(F)F)cc1 [Example 22, 1-(4-(Benzyl(2,2-difluoroethyl)amino)-2′-(1H-tetrazol-5-yl)-[1,1′-biphenyl]-3-yl)-3-(p-tolyl)urea]	30

Further lines, results first:

IC50 [nM]	SMILES
8.75	Cc1ccc(NC(=O)Nc2cc(-c3ccccc3C(=O)O)ccc2N(C)C2CCCCCC2)cc1 [Example 80, 4′-(cycloheptyl(methyl)amino)-3′-(3-p-tolylureido)biphenyl-2-carboxylic acid]
9.92	Cc1ccc(NC(=O)Nc2cc(-c3ccccc3-c3nnn[nH]3)ccc2N(CC(C)C)C2CCCC2)cc1 [Example 174, 1-(4-(cyclopentyl (isobutyl)amino)-2′-(1H-tetrazol-5-yl)biphenyl-3-yl)-3-p-tolylurea]
1.31	C#Cc1ccc(NC(=O)Nc2cc(-c3ccccc3-c3nnn[nH]3)ccc2N(CC(C)C)CC(C)C)cc1 [Example 278, 1-(4-(diisobutylamino)-2′-(1H-tetrazol-5-yl)-[1,1′-biphenyl]-3-yl)-3-(4-ethynylphenyl)urea]
10	O=C(Nc1ccc(C2CC2)c(F)c1)Nc1cc(-c2ccccc2-c2nnn[nH]2)ccc1N(CCCC(F)(F)F)Cc1ccc(Cl)cc1 [Example 297, 1-(4-((4-chlorobenzyl)(4,4,4-trifluorobutyl)amino)-2′-(1H-tetrazol-5-yl)-[1,1′-biphenyl]-3-yl)-3-(4-cyclopropyl-3-fluorophenyl)urea]
10	CC(C)CN(CC(C)C)c1ccc(-c2ccccc2-c2nn[nH]n2)cc1NC(=O)Nc1c(F)cccc1F [Example 283, 1-(2,6-difluorophenyl)-3-(4-(diisobutylamino)-2′-(2H-tetrazol-5-yl)-[1,1′-biphenyl]-3-yl)urea]
1.65	CCCN(c1ccc(-c2ccccc2-c2nnn[nH]2)cc1NC(=O)Nc1ccc(C)cc1)C1CCCCC1 [Example 85, 1-(4-(cyclohexyl(propyl)amino)-2′-(1H-tetrazol-5-yl)biphenyl-3-yl)-3-p-tolylurea]
3.47	CC(C)CN(c1ccc(-c2ccccc2C(=O)O)cc1NC(=O)Nc1ccccc1F)C1CCCCC1 [Example 122, 4′-(cyclohexyl(isobutyl)amino)-3′-(3-(2-fluorophenyl)ureido) biphenyl-2-carboxylic acid]
2.67	CC(C)CN(c1cc(F)c(-c2cc(F)ccc2C(=O)O)cc1NC(=O)Nc1ccc(F)cc1F)C1CCCCC1 [Example 226, 4′-(cyclohexyl(isobutyl)ami-no)-5′-(3-(2,4-difluorophenyl)ureido)-2′,5-difluoro-[1,1′-biphenyl]-2-carboxylic acid]
20	CC(C)CN(c1ccc(-c2ccc(Cl)cc2C(=O)O)cc1NC(=O)Nc1ccccc1F)C1CCCCC1 [Example 123, 4-chloro-4′-(cyclohexyl(isobutyl)amino)-3′-(3-(2-fluorophenyl)ureido) biphenyl-2-carboxylic acid]
5.49	CCCCN(c1ccc(-c2cc(F)ccc2C(=O)O)cc1NC(=O)Nc1ccc(C)cc1)C1CCCCC1 [Example 178, 4′-(butyl(cyclohexyl)amino)-5-fluoro-3′-(3-(p-tolyl)ureido)-[1,1′-biphenyl]-2-carboxylic acid]
30	Cc1ccc(NC(=O)Nc2c(N(CC(C)C)CC(C)C)ccc(-c3ccccc3-c3nnn[nH]3)c2F)cc1 [Example 25, 1-(4-(Diisobutylamino)-2-fluoro-2′-(1H-tetrazol-5-yl)-[1,1′-biphenyl]-3-yl)-3-(p-tolyl)urea]
7.86	CC(C)CN(c1ccc(-c2cc(F)ccc2C(=O)O)cc1NC(=O)Nc1ccccc1F)C1CCCC1 [Example 176, 4′-(cyclopentyl(isobutyl)amino)-5-fluoro-3′-(3-(2-fluorophenyl)ureido) biphenyl-2-carboxylic acid]
5.79	COCCN(Cc1ccc(Cl)cc1)c1ccc(-c2ccccc2-c2nnn[nH]2)cc1NC(=O)Nc1ccc(C)cc1 [Example 191, 1-(4-((4-chlorobenzyl)(2-methoxyethyl)amino)-2′-(1H-tetrazol-5-yl)-[1,1′-biphenyl]-3-yl)-3-(p-tolyl)urea]
20	CC(C)CN(CCC1CC1)c1ccc(-c2cc(F)ccc2C(=O)O)cc1NC(=O)Nc1ccccc1F [Example 135, 4′-((2-cyclopropylethyl) (isobutyl)amino)-5-fluoro-3′-(3-(2-fluorophenyl)ureido)biphenyl-2-carboxylic acid]
7.97	CC(C)CN(CC(C)C)c1ccc(-c2ccccc2-c2nnn[nH]2)cc1NC(=O)Nc1cccc(F)c1F [Example 263, 1-(2,3-difluorophenyl)-3-(4-(diisobutylamino)-2′-(1H-tetrazol-5-yl)-[1,1′-biphenyl]-3-yl)urea]
20	Cc1ccc(NC(=O)Nc2cc(-c3ccccc3-c3nnn[nH]3)ccc2N(CCc2ccccc2)CCC(F)(F)F)cc1 [Example 334, 1-(4-(phenethyl(3,3,3-trifluoropropyl)amino)-2′-(1H-tetrazol-5-yl)-[1,1′-biphenyl]-3-yl)-3-(p-tolyl)urea]
10	Cc1ccc(NC(=O)Nc2cc(-c3ccccc3C(=O)O)ccc2N(CCC(F)(F)F)C2CCCCC2)cc1 [Example 197, 4′-(cyclohexyl(3,3,3-trifluoropropyl)amino)-3′-(3-(p-tolyl)ureido)-[1,1′-biphenyl]-2-carboxylic acid]
1.81	Cc1ccc(NC(=O)Nc2cc(-c3ccccc3-c3nnn[nH]3)ccc2N(C)C2CCCCCC2)cc1 [Example 79, 1-(4-(cycloheptyl(methyl)amino)-2′-(1H-tetrazol-5-yl)biphenyl-3-yl)-3-p-tolylurea]
10	COC(=O)c1cnc(NC(=O)Nc2cc(-c3ccccc3-c3nnn[nH]3)ccc2N(CC(C)C)CC(C)C)s1 [Example 144, methyl 2-(3-(4-(diisobutylamino)-2′-(1H-tetrazol-5-yl)biphenyl-3-yl)ureido)thiazole-5-carboxylate]

Source: patent US9758492B2, “IDO inhibitors” (Bristol-Myers Squibb Company, priority 2013, dated 2017)
